# Assay results: US12427134B2, “Methods of reducing the risk of cardiovascular events in a subject with atrial fibrillation and/or atrial flutter” (priority 2019, dated 2025)
# System: hypertriglyceridemic patients with cardiovascular disease or at high risk for cardiovascular disease
# Assay: REDUCE-IT: treatment-emergent adverse events and serious adverse events (safety population)
# Procedure: Specification of Variables and Procedures: Safety assessments included adverse events, clinical laboratory measurements (chemistry, hematology), 12-lead ECGs, vital signs (systolic and diastolic blood pressure, heart rate, respiratory rate, and body temperature), weight, waist circumference, and physical examinations as per Study Procedures in Table 1. […] All laboratory test results were evaluated by the investigator as to their clinical significance. Any observations at physical examinations or laboratory values considered by the investigator to be clinically significant were considered an adverse event.
# An adverse event can therefore be any unfavorable and/or unintended sign (including an abnormal laboratory finding), symptom, or disease temporally associated with the use of an investigational medication product, whether or not related to the investigational medication product. All adverse events, including observed or volunteered problems, complaints, or symptoms, were recorded on the appropriate CRF. Each adverse event was evaluated for duration, intensity, and causal relationship with the study medication or other factors.
# Adverse events, which included clinical laboratory test variables, were monitored from the time of informed consent until study participation was complete. Patients were instructed to report any adverse event that they experienced to the investigator. Beginning with Visit 2, investigators assessed for adverse events at each visit and recorded the event on the appropriate adverse event CRF.
# Causality Assessment: The relationship of an adverse event to the administration of the study drug was assessed according to the following definitions: • No (unrelated, not related, no relation)—The time course between the administration of study drug and the occurrence or worsening of the adverse event rules out a causal relationship and another cause (concomitant drugs, therapies, complications, etc.) is suspected. • Yes (related, probably related, possibly related)—The time course between the administration of study drug and the occurrence or worsening of the adverse event is consistent with a causal relationship and no other cause (concomitant drugs, therapies, complications, etc.) can be identified.
# Serious Adverse Events: A serious adverse event (SAE) is defined as an adverse event that meets any of the following criteria: • Results in death; • Is life-threatening—The term “life-threatening” in the definition of “serious” refers to an event in which the patient was at risk of death at the time of the event. […] Important medical events that may not result in death, be life threatening, or require hospitalization were considered an SAE when, based upon appropriate medical judgment, they may have jeopardized the patient and may have required medical or surgical intervention to prevent one of the outcomes listed above.
# Analysis of Safety: All analyses of safety were conducted on the safety population, which was defined as all randomized patients. The safety assessment was based on the frequency of adverse events, physical exams, vital signs and safety laboratory tests. AEs with new onset during the study between the initiation of study drug and 30 days after the last dose of study drug for each patient was considered treatment-emergent (TEAEs). This included any AE with onset prior to initiation of study drug and increased severity after the treatment initiation.
# This included overall incidence rates (regardless of severity and relationship to study drug), and incidence rates for moderate or severe adverse events. A summary of SAEs and adverse events leading to early discontinuation (for ≥30 days) were presented through data listings. Patients who restarted study drug were included in the summary of AEs leading to discontinuation.
smiles,measurement,setting,value
"CC/C=C\C/C=C\C/C=C\C/C=C\C/C=C\CCCC(=O)OCC [AMR101, eicosapentaenoic acid ethyl ester]","TEAE: Respiratory, thoracic, and mediastinal disorders, %",Region Westernized (N = 2906),(30.9) %
same,"Diarrhea leading to study drug withdrawal, patients",Safety population,1.1%
same,"Nausea leading to study drug withdrawal, patients",Safety population,0.6%
same,Patients with SAE leading to study drug withdrawal,Safety population,2.2%
same,Patients with TEAE leading to study drug withdrawal,Safety population,7.9%
same,Patients with at least one SAE,Safety population,30.6%
same,Patients with at least one TEAE,Safety population,81.8%
same,Patients with serious TEAE leading to death,Safety population,2.3%
same,"SAE acute kidney injury, patients",Safety population,1.1
same,"SAE angina pectoris, patients",Safety population,1.2%
same,"SAE chest pain, patients",Safety population,1.6%
same,"SAE class GI disorders, patients",Safety population,4.7%
same,"SAE class cardiac disorders, patients",Safety population,4.7%
same,"SAE class musculoskeletal and connective tissue disorders, patients",Safety population,4.6%
same,"SAE class neoplasms benign, malignant, and unspecified, patients",Safety population,5.4%
same,"SAE non-cardiac chest pain, patients",Safety population,1.2%
same,"SAE osteoarthritis, patients",Safety population,2.0%
same,Serious TEAE,Safety population,1252 (30.6%) n (%)
same,Serious TEAE Leading to Death,Safety population,94 (2.3%) n (%)
same,Serious TEAE Leading to Withdrawal of Study Drug,Safety population,88 (2.2%) n (%)
same,Serious TEAE: Pneumonia,Safety population,105 (2.6%) n (%)
same,"Serious adverse event pneumonia, patients",Safety population,2.6%
same,"Serious anemia, patients",Safety population,0.5%
same,"Severe TEAE acute kidney injury, patients",Safety population,0.7%
same,"Severe TEAE chest pain, patients",Safety population,0.7%
same,"Severe TEAE osteoarthritis, patients",Safety population,0.8%
same,"Severe TEAE pneumonia, patients",Safety population,1.5%
same,"Severe TEAE, patients with at least one",Safety population,19.7%
same,"Study drug-related SAE, patients with at least one",Safety population,0.2%
same,"Study drug-related TEAE class GI disorders, patients",Safety population,7.4%
same,"Study drug-related TEAE diarrhea, patients",Safety population,2.7%
same,"Study drug-related TEAE leading to study drug withdrawal, patients",Safety population,3.4%
same,"Study drug-related TEAE, patients with at least one",Safety population,12.6%
same,"Study drug-related diarrhea leading to study drug withdrawal, patients",Safety population,1.0%
same,TEAE Leading to Withdrawal of Study Drug,Safety population,321 (7.9%) n (%)
same,"TEAE anemia, patients",Safety population,4.7%
same,"TEAE atrial fibrillation, patients",Safety population,5.3%
same,"TEAE class GI disorders leading to study drug withdrawal, patients",Safety population,3.6%
same,"TEAE class general disorders and administration site conditions, patients",Safety population,25.2%
same,"TEAE class musculoskeletal and connective tissue disorders, patients",Safety population,35.9%
same,"TEAE class nervous system disorders, patients",Safety population,24.6%
same,"TEAE constipation, patients",Safety population,5.4%
same,"TEAE diarrhea, patients",Safety population,9%
same,"TEAE gastrointestinal disorders, patients",Safety population,33.0%
same,"TEAE of special interest: abnormal glucose control, patients",Safety population,15.2%
same,"TEAE of special interest: hepatic disorders, patients",Safety population,5.4%
same,"TEAE peripheral edema, patients",Safety population,6.5%
same,TEAE: Anemia,Safety population,191 (4.7%) n (%)
same,TEAE: Angina pectoris,Safety population,200 (4.9%) n (%)
same,TEAE: Arthralgia,Safety population,313 (7.7%) n (%)
same,TEAE: Atrial fibrillation,Safety population,215 (5.3%) n (%)
same,TEAE: Back pain,Safety population,335 (8.2%) n (%)
same,TEAE: Bronchitis,Safety population,306 (7.5%) n (%)
same,TEAE: Cataract,Safety population,233 (5.7%) n (%)
same,TEAE: Chest pain,Safety population,273 (6.7%) n (%)
same,TEAE: Constipation,Safety population,221 (5.4%) n (%)
same,TEAE: Cough,Safety population,241 (5.9%) n (%)
same,TEAE: Diarrhea,Safety population,367 (9.0%) n (%)
same,TEAE: Dizziness,Safety population,235 (5.7%) n (%)
same,TEAE: Dyspnea,Safety population,254 (6.2%) n (%)
same,TEAE: Fatigue,Safety population,228 (5.6%) n (%)
same,TEAE: Gastroesophageal Reflux Disease,Safety population,124 (3.0%) n (%)
same,TEAE: Gastrointestinal disorders,Safety population,1350 (33.0%) n (%)
same,TEAE: Hypertension,Safety population,320 (7.8%) n (%)
same,TEAE: Influenza,Safety population,263 (6.4%) n (%)
same,TEAE: Nasopharyngitis,Safety population,314 (7.7%) n (%)
same,TEAE: Nausea,Safety population,190 (4.6%) n (%)
same,TEAE: Osteoarthritis,Safety population,241 (5.9%) n (%)
same,TEAE: Pain in extremity,Safety population,235 (5.7%) n (%)
same,TEAE: Peripheral edema,Safety population,267 (6.5%) n (%)
same,TEAE: Pneumonia,Safety population,263 (6.4%) n (%)
same,TEAE: Upper respiratory tract infection,Safety population,312 (7.6%) n (%)
same,TEAE: Urinary tract infection,Safety population,253 (6.2%) n (%)
same,"TEAE of special interest: Hepatic disorders, %","Safety population N = 4089, P-value 0.3180",(5.4) %
same,"TEAE of special interest: Abnormal glucose control, %","Safety population N = 4089, P-value 0.8059",(15.2) %
same,"CEC-adjudicated CV deaths (excluding deaths with undetermined cause), %","Safety population, N = 4089",(3.4) %
same,"CEC-adjudicated Deaths with undetermined cause, %","Safety population, N = 4089",(0.9) %
same,"CEC-adjudicated Non-CV deaths, %","Safety population, N = 4089",(2.4) %
same,"CEC-adjudicated deaths: Total mortality, %","Safety population, N = 4089",(6.7) %
same,"Patients with at least 1 TEAE, %","Safety population, N = 4089",(81.8) %
same,"Patients with at least 1 serious TEAE, % patients","Safety population, N = 4089",(30.6) %
same,"Patients with at least 1 serious TEAE, n patients","Safety population, N = 4089",1252
same,"Patients with at least 1 severe TEAE, %","Safety population, N = 4089",(19.7) %
same,"Patients with at least 1 study drug-related TEAE leading to study drug withdrawal, % patients","Safety population, N = 4089",(3.4) %
same,"Patients with at least 1 study drug-related TEAE leading to study drug withdrawal, n patients","Safety population, N = 4089",139
same,"Patients with at least 1 study drug-related TEAE, %","Safety population, N = 4089",(12.6) %
same,"Serious TEAE Leading to Death, %","Safety population, N = 4089",(2.3) %
same,"Serious TEAE Leading to Withdrawal of Study Drug, %","Safety population, N = 4089",(2.2) %
same,"Serious TEAE, %","Safety population, N = 4089",(30.6) %
same,"Serious adverse event - Acute kidney injury, % patients","Safety population, N = 4089",(1.1) %
same,"Serious adverse event - Acute kidney injury, n patients","Safety population, N = 4089",47
same,"Serious adverse event - Acute respiratory failure, % patients","Safety population, N = 4089",(0.5) %
same,"Serious adverse event - Acute respiratory failure, n patients","Safety population, N = 4089",19
same,"Serious adverse event - Anemia, % patients","Safety population, N = 4089",(0.5) %
